Test results: patent US12252490B2, “Inhibiting deubiquitinase USP25 and USP28” (Valo Health, Inc., priority 2018, dated 2025)

The compounds below were run against T1, USP25 (USP25-His6) (Homo sapiens, UniProt Q9UHP3) (assay: Ubiquitin-Rhodamine 110 Assay for USP25 Activity, Example A-2). Details: USP25, 75 pM enzyme, 25 nM Ub-Rh110, 30 min preincubation; read-out: Assay A-2 (IC50 range).
T1 construct: His6 (C); purchased Boston Biochem E-546
T1 sequence (Q9UHP3 1-1055): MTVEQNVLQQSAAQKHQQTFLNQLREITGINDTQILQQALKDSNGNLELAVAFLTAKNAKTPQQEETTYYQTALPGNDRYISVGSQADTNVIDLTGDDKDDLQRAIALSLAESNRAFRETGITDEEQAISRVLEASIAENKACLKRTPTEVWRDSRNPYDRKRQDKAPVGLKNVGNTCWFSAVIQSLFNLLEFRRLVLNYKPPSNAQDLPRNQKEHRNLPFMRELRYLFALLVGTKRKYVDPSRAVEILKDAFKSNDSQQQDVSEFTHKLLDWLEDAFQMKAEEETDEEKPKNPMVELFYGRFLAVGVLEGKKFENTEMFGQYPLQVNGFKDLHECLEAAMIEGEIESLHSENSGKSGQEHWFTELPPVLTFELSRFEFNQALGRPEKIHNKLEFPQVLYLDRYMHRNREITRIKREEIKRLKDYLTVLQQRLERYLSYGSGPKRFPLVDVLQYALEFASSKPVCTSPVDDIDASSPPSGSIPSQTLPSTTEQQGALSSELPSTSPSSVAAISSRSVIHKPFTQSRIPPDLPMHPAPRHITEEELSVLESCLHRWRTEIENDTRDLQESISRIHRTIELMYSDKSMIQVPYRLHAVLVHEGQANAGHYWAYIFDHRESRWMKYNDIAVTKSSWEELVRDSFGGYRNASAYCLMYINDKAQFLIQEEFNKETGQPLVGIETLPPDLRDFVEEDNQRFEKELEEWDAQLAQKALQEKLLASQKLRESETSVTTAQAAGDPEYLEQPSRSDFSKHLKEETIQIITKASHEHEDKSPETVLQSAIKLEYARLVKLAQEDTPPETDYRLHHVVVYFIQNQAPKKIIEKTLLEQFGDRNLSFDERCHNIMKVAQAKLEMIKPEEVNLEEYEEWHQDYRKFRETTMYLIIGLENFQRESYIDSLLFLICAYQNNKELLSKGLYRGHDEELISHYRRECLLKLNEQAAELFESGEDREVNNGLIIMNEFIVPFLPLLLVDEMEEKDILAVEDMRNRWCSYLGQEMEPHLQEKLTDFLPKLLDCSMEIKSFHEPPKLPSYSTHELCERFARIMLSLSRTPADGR
Format: biochemical
Method: The assay was performed in a final volume of 9 μL in assay buffer containing 20 mM Tris-HCl (pH 8.0, (1M Tris-HCl, pH 8.0 solution; Corning 46-031-CM)), 3 mM BME (2-Mercaptoethanol; Sigma 63689-25ML-F), 0.03% BGG (0.22 μM filtered, Sigma, G7516-25G), and 0.01% Triton X-100 (Sigma, T9284-10L). Nanoliter quantities of 10-point, 3-fold serial dilution in DMSO was pre-dispensed into 1536 assay plates (Corning, #3724BC) for a final test concentration of 25 μM to 1.3 nM, top to lowest dose, respectively. Enzyme USP25, construct USP25-His6, (Boston Biochem E-546). Concentration and incubation times were optimized for the maximal signal-to-background while maintaining initial velocity conditions at a fixed substrate concentration. The final concentration of the enzyme in the assay was 75 pM. Final substrate (Ub-Rh110; Ubiquitin-Rhodamine 110, R&D Systems #U-555) concentration was 25 nM with [Ub-Rh110]<<Km. 3 μL of 2× enzyme was added to assay plates (pre-stamped with compound) preincubated with […] for 30 minutes and then 3 μL of 2×Ub-Rh110 was added to assay plates. Plates were incubated for 45 minutes at room temperature before addition of 3 μL of stop solution (final concentration of 10 mM citric acid (Sigma, 251275-500G)). Fluorescence was read on the Envision (Excitation at 485 nm and Emission at 535 nm; Perkin Elmer) or on the PheraSTAR (Excitation at 485 nm and Emission at 535 nm; BMG Labtech).
For assay formats Examples A-1a, A-1b, and A-2, data were reported as percent inhibition compared with control wells based on the following equation: % inh=1−((FLU−AveLow)/(AveHigh−AveLow)) where FLU=measured Fluorescence, AveLow=average Fluorescence of no enzyme control (n=16), and AveHigh=average Fluorescence of DMSO control (n=16). IC50 values were determined by curve fitting of the standard 4 parameter logistic fitting algorithm included in the Activity Base software package: IDBS XE Designer Model205. Data is fitted using the Levenburg Marquardt algorithm.

Q: Which IC50 does the source give for CCn1ccc2cc(C(=O)NC[C@@H](C)c3cc(F)c(N4CCNCC4)cc3F)cnc21 (single isomer, unassigned) [Example 2-1] here?
A: 200 to 2000 nM

Q: Which IC50 does the source give for CCn1ccc2cc(C(=O)NC[C@H](C)c3cc(F)c(N4CCNCC4)cc3F)cnc21 (single isomer, unassigned) [Example 2-2] here?
A: 2000 to 10000 nM

Q: For CCn1ccc2cc(C(=O)NC[C@H](C)c3cc(F)c(N4CC5CCC(C4)N5)cc3F)cnc21 (single isomer, unassigned) [Example 2-3], which IC50 is on record?
A: 200 to 2000 nM

Q: For CCn1ccc2cc(C(=O)NC[C@@H](C)c3cc(F)c(N4CC5CCC(C4)N5)cc3F)cnc21 (single isomer, unassigned) [Example 2-4], which IC50 is on record?
A: 200 to 2000 nM

Q: With CCn1ccc2cc(C(=O)NC[C@H](C)c3cc(F)c(N4CC5CCC(C4)N5)cc3F)nnc21 (single isomer, unassigned) [Example 4-2] as the compound, how does the IC50 read?
A: 200 to 2000 nM

Q: With CCn1ccc2cc(C(=O)NC[C@@H](C)c3cc(F)c(N4CC5CCC(C4)N5)cc3F)nnc21 (single isomer, unassigned) [Example 4-3] as the compound, how does the IC50 read?
A: 200 to 2000 nM

Q: CCn1ccc2cc(C(=O)NCCc3cc(F)c(N4CC5CCC(C4)N5)cc3F)cnc21 [Example 1-1, N-[2-(4-[3,8-diazabicyclo[3.2.1]octan-3-yl]-2,5-difluorophenyl)ethyl]-1-ethyl-1H-pyrrolo[2,3-b]pyridine-5-carboxamide] was tested. Which IC50 did it give?
A: 50 to 200 nM

Q: Which IC50 does the source give for O=C(NCCc1ccc(N2CCNCC2)cc1)c1cnc2[nH]ccc2c1 [Example 1-2, N-(4-(piperazin-1-yl)phenethyl)-1H-pyrrolo[2,3-b]pyridine-5-carboxamide] here?
A: 200 to 2000 nM

Q: With Cn1ccc2cc(C(=O)NCCc3ccc(N4CCNCC4)cc3)cnc21 [Example 1-3, 1-methyl-N-(4-(piperazin-1-yl)phenethyl)-1H-pyrrolo[2,3-b]pyridine-5-carboxamide] as the compound, how does the IC50 read?
A: 200 to 2000 nM

Q: For CCn1ccc2cc(C(=O)NCCc3ccc(N4CCNCC4)cc3)cnc21 [Example 1-4, 1-ethyl-N-(4-(piperazin-1-yl)phenethyl)-1H-pyrrolo[2,3-b]pyridine-5-carboxamide], which IC50 is on record?
A: 200 to 2000 nM

Q: How did the IC50 turn out when Nc1c(C(=O)NCCc2ccc(N3CCNCC3)cc2)cnc2[nH]ccc12 [Example 1-5, 4-amino-N-(4-(piperazin-1-yl)phenethyl)-1H-pyrrolo[2,3-b]pyridine-5-carboxamide] was run?
A: 2000 to 10000 nM

Q: CCn1ccc2cc(C(=O)NCCc3ccc(N4CC5CCC(C4)N5)cc3)cnc21 [Example 1-6, N-(4-(3,8-diazabicyclo[3.2.1]octan-3-yl)phenethyl)-1-ethyl-1H-pyrrolo[2,3-b]pyridine-5-carboxamide] was tested. Which IC50 did it give?
A: 50 to 200 nM

Q: For CCn1ccc2cc(C(=O)NCCc3cc(F)c(N4CCNCC4)cc3F)cnc21 [Example 1-7, N-(2,5-difluoro-4-(piperazin-1-yl)phenethyl)-1-ethyl-1H-pyrrolo[2,3-b]pyridine-5-carboxamide], which IC50 is on record?
A: 200 to 2000 nM

Q: For O=C(NCCc1ccc(N2CCNCC2)cc1)c1cnc2c(ccn2CC(F)(F)F)c1 [Example 1-8], which IC50 is on record?
A: 50 to 200 nM

Q: For CC(C)(O)Cn1ccc2cc(C(=O)NCCc3cc(F)c(N4CC5CCC(C4)N5)cc3F)cnc21 [Example 1-9, N-(4-(3,8-diazabicyclo[3.2.1]octan-3-yl)-2,5-difluorophenethyl)-1-(2-hydroxy-2-methylpropyl)-1H-pyrrolo[2,3-b]pyridine-5-carboxamide], which IC50 is on record?
A: > 10000 nM

Q: How did the IC50 turn out when CCn1ccc2cc(C(=O)NCCc3ccc(N4CC5CCC(C4)N5)c(F)c3)cnc21 [Example 1-10, N-(4-(3,8-diazabicyclo[3.2.1]octan-3-yl)-3-fluorophenethyl)-1-ethyl-1H-pyrrolo[2,3-b]pyridine-5-carboxamide] was run?
A: 200 to 2000 nM

Q: With CCn1cc(Cl)c2cc(C(=O)NCCc3ccc(N4CCNCC4)cc3)cnc21 [Example 3-1, 3-Chloro-1-ethyl-N-[2-[4-(piperazin-1-yl)phenyl]ethyl]-1H-pyrrolo[2,3-b]pyridine-5-carboxamide] as the compound, how does the IC50 read?
A: 50 to 200 nM

Q: With O=C(NCCc1ccc(N2CCNCC2)cc1)c1cnc2[nH]cc(Cl)c2c1 [Example 3-2, 3-chloro-N-(4-(piperazin-1-yl)phenethyl)-1H-pyrrolo[2,3-b]pyridine-5-carboxamide] as the compound, how does the IC50 read?
A: 2000 to 10000 nM

Q: Which IC50 does the source give for CCn1ccc2cc(C(=O)NCCc3cc(F)c(N4CC5CCC(C4)N5)cc3F)nnc21 [Example 4-1, N-[2-(4-[3,8-diazabicyclo[3.2.1]octan-3-yl]-2,5-difluorophenyl)ethyl]-7-ethyl-7H-pyrrolo[2,3-c]pyridazine-3-carboxamide] here?
A: 200 to 2000 nM

Q: For CCn1cc(Cl)c2cc(C(=O)NCCc3cc(F)c(N4CC5CCC(C4)N5)cc3F)nnc21 [Example 4-4, N-(4-(3,8-diazabicyclo[3.2.1]octan-3-yl)-2,5-difluorophenethyl)-5-chloro-7-ethyl-7H-pyrrolo[2,3-c]pyridazine-3-carboxamide], which IC50 is on record?
A: 50 to 200 nM
